Measurements as given in US7910588B2, “5-HT7 receptor antagonists” (Eli Lilly and Company, priority 2007, dated 2011).

How the values were obtained:
[1] = target: alpha 2 adrenergic; test: Radioligand binding assay, alpha 2 adrenergic
Procedure: (§1) [^3H] […] The reactions are incubated at room temperature for 3 hr. and then counted in a Trilux Microbeta™ scintillation counter to detect receptor-bound radioligand. Binding data are analyzed by computer-assisted 4 parameter fit analysis (ID Business Solutions Ltd, Guildford, Surrey, UK). […]
(§2) Affinity for other serotonin receptor subtypes as well as for alpha 1 & 2 adrenergic receptors can readily be determined by modification of the above described radioligand receptor binding assay using membranes derived from cells stably expressing the desired receptor subtype including the 5-HT1A, 5-HT1B, and 5-HT1D subtypes, as well as the 5-HT2A, 5-HT2B, 5-HT2C, 5-HT4, 5-HT7, and 5-HT6 receptor subtypes. […]

[2] = target: T1, 5-HT7 receptor (Homo sapiens, UniProt P34969); test: Functional antagonist assay: measurement of cAMP formation; format: cell-based
T1 construct: expressed in transfected cells
Procedure: For cAMP functional assays, the 5-HT7-expressing cells from above are grown in 150 cm^2 flasks and processed essentially as follows. The media is aspirated from the flasks and cells are washed with 1 mL PBS. The cells are released from the flask surface using enzyme free cell dissociation solution (Specialty media (www.chemicon.com) CAT#S-004-B) and resuspended in complete media. A sample of the cells is counted and the remainder is centrifuged as above for 3 min. The resulting cell pellet is resuspended in PBS at a concentration of 1×10^6 cells per mL and used directly in the cAMP assay as described.
The 5-HT7 receptor is functionally coupled to a G-protein as measured by the ability of serotonin and serotonergic drugs to stimulate cAMP production in CHO cells transfected with the 5-HT7 receptor. (Ruat, et al., Proceedings of the National Academy of Sciences (USA), 90:8547-8551, 1993.) Accordingly, functional receptor activity can be measured by measuring adenylate cyclase activity using a commercially available cell-based, homogeneous, time resolved fluorescence assay kit, as for example the kit produced by Cisbio-US, Inc. (Bedford, Mass.). Essentially, and using the protocol and reagents provided by the manufacturer, approximately 20,000 human 5-HT7 receptor-expressing AV-12 cells (as described above) are used with test compound dose concentrations in the range described for the binding assay. […] A cAMP standard curve is also run in every experiment. After the assay plates are read in an Envision™ instrument (Perkin-Elmer, Wellesley Mass.), the data are normalized to the standard curve and converted to percent inhibition for data analysis as described above for the receptor binding assay results. The Kb (nM) is calculated as a measure of the antagonist potency of the compound. Preferred compounds are those having percent inhibition >75%. Still other preferred compounds are those having Kb<50 nM.

[3] = target: alpha 1 adrenergic; test: Radioligand binding assay, alpha 1 adrenergic
Procedure: as §1, §2

[4] = target: T2, 5-HT2A (Homo sapiens, UniProt P28223); test: Radioligand binding assay, 5-HT2A
T2 construct: expressed in transfected cells
Procedure: as §1, §2

[5] = target: T3, 5-HT1B (Homo sapiens, UniProt P28222); test: Radioligand binding assay, 5-HT1B
T3 construct: expressed in transfected cells
Procedure: as §1, §2

[6] = target: T4, 5-HT1A (Homo sapiens, UniProt P08908); test: Radioligand binding assay, 5-HT1A
T4 construct: expressed in transfected cells
T4 sequence (P08908 1-422): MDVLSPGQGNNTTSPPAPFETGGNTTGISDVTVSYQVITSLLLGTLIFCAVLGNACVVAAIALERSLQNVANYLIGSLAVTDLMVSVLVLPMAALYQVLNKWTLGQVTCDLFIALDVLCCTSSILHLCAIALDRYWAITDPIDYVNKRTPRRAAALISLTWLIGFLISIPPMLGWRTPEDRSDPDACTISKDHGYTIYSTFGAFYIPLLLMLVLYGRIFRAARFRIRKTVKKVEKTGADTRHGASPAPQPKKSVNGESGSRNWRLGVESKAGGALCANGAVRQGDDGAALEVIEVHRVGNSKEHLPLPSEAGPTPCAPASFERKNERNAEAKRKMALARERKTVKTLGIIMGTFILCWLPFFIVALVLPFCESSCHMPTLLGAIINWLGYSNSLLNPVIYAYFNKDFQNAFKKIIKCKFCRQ
Procedure: as §1, §2

[7] = target: T5, 5-HT2B (Homo sapiens, UniProt P41595); test: Radioligand binding assay, 5-HT2B
T5 construct: expressed in transfected cells
Procedure: as §1, §2

T1 sequence (P34969 whole entry): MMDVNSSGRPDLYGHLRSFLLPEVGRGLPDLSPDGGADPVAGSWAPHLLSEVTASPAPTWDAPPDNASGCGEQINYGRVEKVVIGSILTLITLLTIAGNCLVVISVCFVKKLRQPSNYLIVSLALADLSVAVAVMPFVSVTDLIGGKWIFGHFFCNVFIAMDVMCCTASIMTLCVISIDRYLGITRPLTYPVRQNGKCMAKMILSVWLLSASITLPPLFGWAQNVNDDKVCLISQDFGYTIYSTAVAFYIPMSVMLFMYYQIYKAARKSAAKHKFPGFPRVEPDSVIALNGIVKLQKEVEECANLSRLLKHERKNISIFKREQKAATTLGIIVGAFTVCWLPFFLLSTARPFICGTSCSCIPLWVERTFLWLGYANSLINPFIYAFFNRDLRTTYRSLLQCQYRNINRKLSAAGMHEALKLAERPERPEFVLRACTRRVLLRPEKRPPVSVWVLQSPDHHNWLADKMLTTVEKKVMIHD
T3 sequence (P28222 whole entry, species assumed): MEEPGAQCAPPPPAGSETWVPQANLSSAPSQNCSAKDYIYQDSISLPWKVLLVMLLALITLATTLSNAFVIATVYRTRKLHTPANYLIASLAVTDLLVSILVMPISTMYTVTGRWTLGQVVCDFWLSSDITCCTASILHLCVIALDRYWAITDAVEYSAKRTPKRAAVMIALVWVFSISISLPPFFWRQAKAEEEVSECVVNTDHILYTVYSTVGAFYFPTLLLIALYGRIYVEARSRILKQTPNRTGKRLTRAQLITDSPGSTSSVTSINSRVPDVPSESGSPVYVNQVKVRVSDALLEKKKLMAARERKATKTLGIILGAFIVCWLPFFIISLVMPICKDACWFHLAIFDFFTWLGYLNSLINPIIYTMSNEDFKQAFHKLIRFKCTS
T5 sequence (P41595 whole entry, species assumed): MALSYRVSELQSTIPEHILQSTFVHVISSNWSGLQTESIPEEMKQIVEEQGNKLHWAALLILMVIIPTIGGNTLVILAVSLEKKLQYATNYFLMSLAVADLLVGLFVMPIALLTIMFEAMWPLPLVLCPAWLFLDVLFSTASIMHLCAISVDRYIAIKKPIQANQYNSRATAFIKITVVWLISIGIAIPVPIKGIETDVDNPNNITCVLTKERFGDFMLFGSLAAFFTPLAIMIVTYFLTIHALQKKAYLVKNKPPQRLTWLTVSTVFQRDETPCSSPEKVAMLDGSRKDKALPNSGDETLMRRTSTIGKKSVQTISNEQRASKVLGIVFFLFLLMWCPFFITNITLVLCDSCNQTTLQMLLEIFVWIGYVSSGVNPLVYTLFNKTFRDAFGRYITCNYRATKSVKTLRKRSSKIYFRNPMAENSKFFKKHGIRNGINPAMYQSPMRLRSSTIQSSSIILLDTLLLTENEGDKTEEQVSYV
T2 sequence (P28223 whole entry, species assumed): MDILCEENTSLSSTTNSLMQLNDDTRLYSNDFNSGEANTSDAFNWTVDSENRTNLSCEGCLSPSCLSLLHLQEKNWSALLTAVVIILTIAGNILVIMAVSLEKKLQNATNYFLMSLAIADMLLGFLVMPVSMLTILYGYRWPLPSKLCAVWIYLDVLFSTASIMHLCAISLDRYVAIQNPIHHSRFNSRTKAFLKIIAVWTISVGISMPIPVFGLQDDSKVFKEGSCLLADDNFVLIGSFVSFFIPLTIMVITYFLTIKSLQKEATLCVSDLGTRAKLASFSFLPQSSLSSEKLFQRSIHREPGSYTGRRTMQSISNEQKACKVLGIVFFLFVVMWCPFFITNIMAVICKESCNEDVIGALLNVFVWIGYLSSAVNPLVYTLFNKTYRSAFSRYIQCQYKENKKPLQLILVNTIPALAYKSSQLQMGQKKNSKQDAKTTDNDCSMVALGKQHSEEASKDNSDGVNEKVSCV

CCn1ncc(CN2CCN(c3cccnc3N3CCC(O)CC3)CC2)c1C.Cl [Example 1, 3′-[4-(1-Ethyl-5-methyl-1H-pyrazol-4-ylmethyl)-piperazin-1-yl]-3,4,5,6-tetrahydro-2H-[1,2]bipyridinyl-4-ol hydrochloride]
Ki [1]: > 2.67 µM
Kb ([2]; antagonist potency, cAMP formation in 5-HT7 receptor-expressing AV-12 cells): ~0.00297 µM
antagonist character ([2]; cAMP formation in 5-HT7 receptor-expressing AV-12 cells): full antagonist
inhibition ([2]; percent inhibition of cAMP formation in 5-HT7 receptor-expressing AV-12 cells): about 108%
Ki [3]: 1.38 µM
Ki [4]: > 7.47 µM
Ki [5]: > 3.58 µM
Ki [6]: 0.213 µM
Ki [7]: > 6.81 µM
